Measured values: patent publication US9333272B2, “Fibrin binding peptide conjugates for diagnostic and therapeutic applications” (Bracco Imaging SpA, priority 2006, dated 2016)

Experiments:
[1] = target: T1, fibrin in tumor, mammary tumor mouse model (BALB-neuT) (Mus musculus, UniProt E9PV24+Q8K0E8+Q8VCM7); experiment: In vivo MRI, mammary tumor mouse model (BALB-neuT), Example 16; settings: 100 μmol/kg; reference compound
T1 construct: from tissue; host or cells: tumor stroma of living mice (BALB-neuT mammary tumor, TRAMP prostate tumor, Neuro-2a neuroblastoma in A/J mice)
T1 sequence (E9PV24 20-557 isoform E9PV24-2 limits assumed): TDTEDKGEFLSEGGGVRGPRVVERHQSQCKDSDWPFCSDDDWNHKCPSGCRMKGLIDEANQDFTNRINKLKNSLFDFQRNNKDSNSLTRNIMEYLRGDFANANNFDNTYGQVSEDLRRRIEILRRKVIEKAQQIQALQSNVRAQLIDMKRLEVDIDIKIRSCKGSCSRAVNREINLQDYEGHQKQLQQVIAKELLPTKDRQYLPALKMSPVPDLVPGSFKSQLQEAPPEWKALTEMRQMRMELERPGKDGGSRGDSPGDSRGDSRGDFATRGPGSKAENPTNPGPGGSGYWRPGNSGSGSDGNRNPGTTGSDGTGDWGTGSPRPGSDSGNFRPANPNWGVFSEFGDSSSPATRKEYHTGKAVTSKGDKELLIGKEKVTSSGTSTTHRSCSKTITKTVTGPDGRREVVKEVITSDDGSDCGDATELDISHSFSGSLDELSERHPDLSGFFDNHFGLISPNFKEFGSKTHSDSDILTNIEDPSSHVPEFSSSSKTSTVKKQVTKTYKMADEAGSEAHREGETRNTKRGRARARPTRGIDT
T1 sequence (Q8K0E8 35-481 limits assumed): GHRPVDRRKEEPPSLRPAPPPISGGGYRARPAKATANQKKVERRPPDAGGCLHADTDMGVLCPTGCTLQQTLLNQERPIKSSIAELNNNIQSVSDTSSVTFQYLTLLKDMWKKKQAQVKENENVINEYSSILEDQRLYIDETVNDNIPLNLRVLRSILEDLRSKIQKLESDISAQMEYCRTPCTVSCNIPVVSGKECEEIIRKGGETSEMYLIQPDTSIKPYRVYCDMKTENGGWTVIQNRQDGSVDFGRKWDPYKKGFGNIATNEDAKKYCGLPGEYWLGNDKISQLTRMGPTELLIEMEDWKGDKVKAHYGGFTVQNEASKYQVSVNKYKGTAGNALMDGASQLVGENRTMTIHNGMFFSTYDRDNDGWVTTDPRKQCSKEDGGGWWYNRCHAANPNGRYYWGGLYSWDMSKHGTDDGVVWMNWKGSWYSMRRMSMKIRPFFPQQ
T1 sequence (Q8VCM7 26-436): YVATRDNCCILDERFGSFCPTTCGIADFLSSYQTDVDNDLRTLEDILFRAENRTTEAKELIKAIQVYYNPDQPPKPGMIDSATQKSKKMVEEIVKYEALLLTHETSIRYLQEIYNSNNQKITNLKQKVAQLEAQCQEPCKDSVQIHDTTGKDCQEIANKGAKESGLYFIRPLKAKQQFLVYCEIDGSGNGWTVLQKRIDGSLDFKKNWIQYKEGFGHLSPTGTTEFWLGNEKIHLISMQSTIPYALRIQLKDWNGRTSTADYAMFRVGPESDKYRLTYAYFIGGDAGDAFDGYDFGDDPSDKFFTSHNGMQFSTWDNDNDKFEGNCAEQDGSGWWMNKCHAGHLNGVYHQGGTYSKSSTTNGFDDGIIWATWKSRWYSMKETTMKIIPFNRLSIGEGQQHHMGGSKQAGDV
Procedure: The test has been performed in a mammary tumor mouse model (BALB-neuT). Mice were treated with Chelate Complex 2 of the invention, 25 μmol/kg, injected iv, and with ProHance® at 100 μmol/kg. Signal enhancement of the tumor was followed up to 3 h after contrast administration.
Successive T1 weighted SE images were acquired pre- and post-injection of the test compounds and some examples are reported in FIGS. 6 and 7. Images are related to successive slices from the same mouse acquired at different time points post contrast. In particular, FIG. 6 includes images post-injection of chelate Complex 2 at 25 μmol/kg (arrows indicate tumor) and FIG. 7 includes analogous images post administration of ProHance®.

[2] = target: T2, fibrin in tumor, TRAMP prostate tumor (Mus musculus, UniProt E9PV24+Q8K0E8+Q8VCM7); experiment: In vivo MRI, transgenic adenocarcinoma mouse prostate model (TRAMP), Example 17; settings: 100 μmol/kg iv; control
T2 construct: from tissue; host or cells: tumor stroma of living mice (BALB-neuT mammary tumor, TRAMP prostate tumor, Neuro-2a neuroblastoma in A/J mice)
T2 sequence (E9PV24 20-557 isoform E9PV24-2 limits assumed): T1 sequence (E9PV24 20-557 isoform E9PV24-2 limits assumed)
T2 sequence (Q8K0E8 35-481 limits assumed): T1 sequence (Q8K0E8 35-481 limits assumed)
T2 sequence (Q8VCM7 26-436): T1 sequence (Q8VCM7 26-436)
Procedure: This test has been performed in a transgenic adenocarcinoma mouse prostate model (TRAMP) developed by introducing a PB promoter—SV40 T antigen fusion transgene (PB-Tag) into the germ line of C57BL/6 inbred mice.
Two TRAMP mice were treated with ProHance® at 100 μmol/kg iv (control), and the day after with Chelate Complex 2 or with Chelate Complex 5 at 25 μmol/kg iv. T1 weighted SE images were acquired pre- and post-contrast injection and the kinetic of enhancement in the tumor was followed up to 3 h post-test compound administration.

## CC(O)CN1CCN(CC(=O)[O-])CCN(CC(=O)[O-])CCN(CC(=O)[O-])CC1.[Gd+3] (centres unmarked) [ProHance®]
[1]
  Tumor signal enhancement (T1 weighted MRI), in words: signal distribution only on the border and no signal enhancement inside the tumors after 55 min
[2]
  Tumor signal enhancement (T1 weighted MRI), in words: very weak signal enhancement
